Measurements as given in patent US8859009B2, “Method of fixing antibacterial agent and article obtained by the method” (Hiroshima University, priority 2008, dated 2014).

Tested on: strain GDH18 of Candida Albicans
Assay: Antibacterial-property test on hemocytometer cover glass test pieces (colour change of agar), Example 3
Format: cell-based
Description: A hemocytometer cover glass was used as a test piece of an article on which an antibacterial agent is fixed. A strain GDH18 of Candida Albicans was used as the bacteria for use in the antibacterial-property test. The bacteria was incubated on Sabouraud agar for 18 hours and a bacteria solution having bacteria concentration of 1×10^6 cells/mL was prepared using ultra pure water (MQ water). The test pieces were immersed for 1 minute in approximately 30 mL of ozone water (0.4 to 0.6 ppm) produced by using ultra pure water and “Ozone Dash” manufactured by Ozone Total System Co., Ltd. The test pieces were then drained on a filtering paper and immersed for 5 minutes in following aqueous solutions, respectively: Each test piece was then taken out of the aqueous solution, immediately washed with water such that excess antibacterial composition was removed, whereby test pieces for the antibacterial-property test were obtained. […] Each test piece was left for 2 hours at the room temperature to wait for sedimentation of the bacteria. Thereafter, 5 mL of Sabouraud agar containing chlorophenol red as a pH indicator (Candida yellow agar, manufactured by Fuji Pharma Co., Ltd.) was added to each test piece and the respective test pieces were continually incubated at 37° C. […] Antibacterial property was evaluated using such change in color as described above of the agar as an index.

In the case of `CCCCCCCCCCCCCCCCCC[N+](C)(C)CCC[Si](OCC)(OCC)OCC.[Cl-]` [EtAC, octadecyldimethyl(3-triethoxysilylpropyl)ammonium chloride], the antibacterial performance (control without ozone water treatment, EtAC treatment 5 minutes) is reported as “hardly exhibited antibacterial performance”, the “color of the agar” value (upper control: immersed in MQ water (no ozone water), then 70% ethanol solution of EtAC 5 minutes, 45 hours) is reported as “strongly yellow” and the “number of bacteria cells” value (upper control: immersed in MQ water (no ozone water), then 70% ethanol solution of EtAC 5 minutes, 45 hours, from agar colour) is reported as no less than 5e+07 mL⁻¹.
